From US20100120690A1, “Polypeptides Having Antimicrobial Activity and Polynucleotides Encoding Same” (Novozymes Adenium Biotech A/S, priority 2005, published 2010)

Tests used:
[1] = test system: Staphylococcus carnosus; assay: TAPS (Trans Acting Peptide System) assay, radial diffusion read-out; format: cell-based; design: key: classified as 4>3>2>1; whereas 4 is better than 1; classified as 4>3>2>1; classified as 4>3>2>1; wildtype activity corresponds to 1; details: peptide expressed in E. coli
Description: A range of antimicrobial polypeptides, which are variants of SEQ ID NO: 1, were tested in the TAPS assay. TAPS may be used to identify new or improved genes encoding peptides that can kill or inhibit the growth of target cells (see PCT application WO 2004/033715). The TAPS assay, an acronym for Trans Acting Peptide System, is based on having a sensitive host producing a peptide followed by screening for its activity in trans against an indicator strain. The advantage of this system is based on that the antimicrobial peptide is expressed in the Gram-negative bacterium E. coli and its antimicrobial activity can be monitored on different microbes including Gram-negatives, positives or fungi. Additionally, TAPS offers the possibility to produce correctly folded AMPs containing disulfide bonds in the host cells, thereby retaining their antimicrobial activities.
The TAPS approach requires first, that expression of the peptide is under control of an inducible promoter with tight regulation, because the host cells are sensitive to the peptide when producing it. Secondly, the produced peptide has to be released to the media so that it can interact with the target organism.
The TAPS screening can be carried out either in solid or liquid media. On solid media, a plasmid library is initially introduced into E. coli host cells. […] In the next step, the filter containing the colonies is transferred to LB growth medium containing inducer (0.1% arabinose) to permit peptide synthesis. Subsequently, the target strain, for example S. carnosus, is overlaid onto the plate and allowed to grow for 12-16 hours at 37° C. Finally, visual inspection of the host cells capable of reducing the proliferation of the target cells is performed and the nucleotide sequence encoding for the antimicrobial peptide is recovered from the host cells. DNA sequence analysis of the variants is obtained to elucidate the nature of the peptide.
As mentioned above, the TAPS screening can also be performed using liquid medium. This procedure requires the use of robotics to analyze large number of clones. In this system, the host E. coli origami cells are transformed with the plasmid library and plated out on LB medium+0.2% glucose+ampicillin (200 mg/L). Independent colonies are then inoculated into 96 or 384-well plates containing 200 micro-L of TB medium+ampicillin (200 mg/L) and cultured overnight at 37° C. These cultures are then replicated robotically and grown to exponential phase until inducer (0.1% arabinose) is added to trigger peptide synthesis. The next step consists in hydrolyzing the cells such that the peptide is released to the media by hot acid hydrolysis. This treatment consists on adding 1 M sodium Phosphate buffer pH 2.3 to obtain a final pH approximately of 2.3 and incubating the cultures overnight at 80° C. Next day, a 25 micro-L aliquot of the hydrolyzed cultures is used to perform an activity test against the desired target organisms. The activity test performed was a Radial Diffusion Assay (RDA) where an aliquot of the hydrolyzed cultures was added to the agarose media inoculated with the target strain, S. carnosus. […] Measurements of the diameter of the clearing zones were performed to quantify the potency of the antimicrobial activity of the peptides.
The antimicrobial activity (against Staphylococcus carnosus) of the tested plectasin variants, which was measured using the TAPS assay, is shown in table 3. The antimicrobial activity corresponds to the clearing zone size and has been classified as 4>3>2>1; whereas 4 is better than 1, and wildtype activity corresponds to 1.

[2] = test system: panel of 6 different strains of Staphylococcus aureus; assay: Average MIC, NCCLS/CLSI guidelines using caMHB (Example 6); format: cell-based; details: average over 6 S. aureus strains, duplicate; MIC above 32 counted as 64; read after 18-24 hours at 37° C.
Summary of the method: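 Six Staphylococcus aureus strains, MSSA and MRSA, were exposed in duplicate to peptide dilutions from 32 down to 0.03 microgram/mL in caMHB following CLSI guidance. Growth was scored after 18-24 h incubation at 37° C. The tabulated value is the mean MIC, with 64 used for any MIC >32 micrograms/mL.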

[3] = test system: S. aureus; assay: Minimal Inhibitory Concentration, NCCLS guidelines (Example 4); format: cell-based, Staphylococcus aureus; details: purified peptide
Description: (§1) The Minimal Inhibitory Concentration (MIC, micrograms/mL) was determined to test for their antimicrobial activity following the NCCLS guidelines (Clinical and Laboratory Standards Institute; formerly known as National Committee for Clinical and Laboratory Standards).

[4] = test system: M. luteus; assay: as above; format: cell-based, Micrococcus luteus; details: purified peptide
Description: as §1

[5] = test system: B. subtilis; assay: as above; format: cell-based, Bacillus subtilis; details: purified peptide
Description: as §1

[6] = test system: Staphylococcus aureus, ATCC 29213; assay: MIC, NCCLS/CLSI guidelines (Example 5), strain A; format: cell-based; details: relative to wildtype Plectasin; average of two independent experiments
Summary of the method: (§2)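 Scores express each variant's MIC as a fraction of wild-type plectasin MIC (0: >100%; 1: 80-100%; 2: 50-80%; 3: <50%), averaged over two independent runs. Purified recombinant peptides; MIC by the CLSI (formerly NCCLS) method.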

[7] = test system: Staphylococcus aureus, ATCC 25923; assay: MIC, NCCLS/CLSI guidelines (Example 5), strain B; format: cell-based; details: relative to wildtype Plectasin; average of two independent experiments
Summary of the method: as §2

[8] = test system: Staphylococcus aureus, ATCC 29737; assay: MIC, NCCLS/CLSI guidelines (Example 5), strain C; format: cell-based; details: relative to wildtype Plectasin; average of two independent experiments
Summary of the method: as §2

[9] = test system: Staphylococcus aureus, MRSA ST5 (2001); assay: MIC, NCCLS/CLSI guidelines (Example 5), strain D; format: cell-based; details: relative to wildtype Plectasin; average of two independent experiments
Summary of the method: (§3)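 Expressed, purified plectasin wild-type and variant peptides were tested for minimal inhibitory concentration under NCCLS/CLSI guidelines. Values are the mean of two independent experiments, scored relative to wild-type plectasin MIC: 0 >100%, 1 80-100%, 2 50-80%, 3 <50%.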

[10] = test system: Staphylococcus aureus, MRSA ST80 (2003); assay: MIC, NCCLS/CLSI guidelines (Example 5), strain E; format: cell-based; details: relative to wildtype Plectasin; average of two independent experiments
Summary of the method: as §3

Sequence | Activity (antimicrobial activity, clearing zone size) [1] | Average MIC [2] | other results
GFGCNGPWDEDDKQCHRHCKSIKGYKGGYCAKGGFVCKCYR [M13K + N17R + Y40YR] | 3 | 8 micrograms/mL | –
GFGCNGPWDEGDMQCHNHCKSIKGYRGGYCAKGGFVCKCY [D11G + K26R] | 2 | 11 micrograms/mL | MIC against S. aureus [3]: 2 micrograms/mL; MIC against M. luteus [4]: 8 micrograms/mL; MIC against B. subtilis [5]: 0.50 micrograms/mL
GFGCNGPWDEDDKQCHNHCKSIKGYKGGYCAKGGFVCRCY [M13K + K38R] | 4 | 6 micrograms/mL | Relative MIC, strain A [6]: 1 (80-100% of Plectasin wildtype MIC); Relative MIC, strain B [7]: 3 (<50% of Plectasin wildtype MIC); Relative MIC, strain C [8]: 3 (<50% of Plectasin wildtype MIC); Relative MIC, strain D [9]: 2 (50-80% of Plectasin wildtype MIC); Relative MIC, strain E [10]: 3 (<50% of Plectasin wildtype MIC)
GFGCNGPWDEDDMRCHNHCKSIKGYRGGYCAKGGFVCKCY [Q14R + K26R] | 4 | 5 micrograms/mL | –
GFGCKGPWDEDDMQCHNHCKSIKGYKGGYCAKGGFVCKCY [Mutation N5K] | 2 | 12 micrograms/mL | –
GFGCNGPWDEGDKQCHNHCKSIKGYRGGYCAKGGFVCKCY [D11G + M13K + K26R] | 3 | – | –
GFGCNGPWDEGDKQCHNHCKSIKGYRGGYCAKGGFVCKCYR [D11G + M13K + K26R + Y40YR] | 4 | 12 micrograms/mL | MIC against S. aureus [3]: 0.50 micrograms/mL; MIC against M. luteus [4]: 0.50 micrograms/mL; MIC against B. subtilis [5]: <0.03 micrograms/mL
GFGCNGPWDEDDMLCHNHCKSIKGYKGGYCAKGGFVCKCY [Mutation Q14L] | 4 | 13 micrograms/mL | –
GFGCNGPWDEDDMRCHNHCKSIKGYKGGYCAKGGFICKCY [Q14R + V36I] | 4 | – | –
GFGCNGPWDEDDKQCHNHCKSIKGYKGGYCAKGGFVCKCYR [M13K + Y40YR] | 4 | 12 micrograms/mL | MIC against S. aureus [3]: 2 micrograms/mL; MIC against M. luteus [4]: 2 micrograms/mL; MIC against B. subtilis [5]: 0.25 micrograms/mL
GFGCNGPWDEDDKQCHRHCKSIKGYKGGYCAKGGFVCKCY [M13K + N17R] | 3 | – | –
GFGCNGPWDENDMQCHNHCKFIKGYKGGYCAKGGFVCKCY [D11N + S21F] | 4 | – | –
GFGCNGPWDEDDMQCHHHCKSIKGYKGGYCAKGGFVCKCY [Mutation N17H] | 4 | – | –
GFGCNGPWDEDDMQCHYHCKSIKGYKGGYCAKGGFVCKCY [Mutation N17Y] | 3 | 6 micrograms/mL | Relative MIC, strain A [6]: 1 (80-100% of Plectasin wildtype MIC); Relative MIC, strain B [7]: 3 (<50% of Plectasin wildtype MIC); Relative MIC, strain C [8]: 3 (<50% of Plectasin wildtype MIC); Relative MIC, strain D [9]: 2 (50-80% of Plectasin wildtype MIC); Relative MIC, strain E [10]: 2 (50-80% of Plectasin wildtype MIC)
